Measurements from a melting point compilation (Tetko et al.).

| Structure (SMILES) | melting point [°C] |
| --- | --- |
| Cc1ccccc1N1CSc2nnc(-c3cccc([N+](=O)[O-])c3)n2C1 | 239 to 240 |
| O=C(Cn1cncn1)c1ccc(F)cc1F | 105 |
| Nc1ccc(Cn2ccnc2)cc1 | 128 to 130 |
| CCOC(=O)c1csc(C2CCN(C(=O)OC(C)(C)C)CC2)n1 | 71 to 73 |
| Cc1[nH]c2ccccc2c1CC(=O)O | 200 |
| Cc1c(C)n2c(CBr)c(C)c(=O)n2c1=O | 152 |
| CC(=O)N1CCN(c2ccc(OCC3COC(Cn4ccnc4)(c4ccc(Cl)cc4Cl)O3)cc2)CC1 (stereo not given) | 146 |
| CCOC(=O)CNc1cc(NCC(=O)OCC)c(N)cc1N | > 360 |
| C/C(=N\c1ccc(C(=O)O)cc1)c1c(O)c2ccccc2n(-c2ccccc2)c1=O | 236 to 238 |
| Nc1ccc([N+](=O)[O-])c(F)c1 | 160 |
| O=S(=O)(SS(=O)(=O)c1ccccc1)c1ccccc1 | 129 to 134 |
| NCCCCCCCCCCN | 62.5 |
| O=[N+]([O-])c1ccc(-c2nnc3n2NC(c2ccc(Cl)cc2)S3)cc1 (stereo not given) | 220 |
| Cc1ccc(C#N)c(N)c1 | 92 to 93 |
| O=[N+]([O-])c1cc(C(F)(F)F)cc([N+](=O)[O-])c1O | 47 to 48 |
| Cc1noc(-c2ccccc2)c1C(=O)O | 190 to 191 |
| Cc1sc2ncnc(Cl)c2c1C | 112 to 113 |
| CN1C(=O)CSC1=S | 72 to 73 |
| CSC(Nc1ccccc1)=C(C#N)C#N | 80 |
| CC(CBr)c1ccccc1 (stereo not given) | -59.3 |
| O=c1[nH]sc2ccccc12 | 156 |
| c1ccc(Oc2nc(-c3ccccc3)nc3nc4ccccc4n23)cc1 | 247 |
| COC(=O)c1c(C=O)c(C)n(C)c1C | 124 to 127 |

| Structure (SMILES) | melting point [°C] |
| --- | --- |
| Cc1cc(C)c(S(=O)(=O)n2cnc([N+](=O)[O-])n2)c(C)c1 | 132 to 134 |
| c1ccc2c(c1)NC1(CCCC1)N2 | 190 |
| CCOC(=O)c1ccc(NC(=O)C(F)(F)C(F)(F)C(F)(F)C(F)(F)C(F)(F)C(F)(F)C(F)(F)C(F)(F)F)cc1 | 135 to 137 |
| C=C(F)C(=O)O | 51.5 to 52 |
| NCCN(CCN)CCN | -16 |
| Cc1ccc(C(N)=O)c(N)c1 | 147 to 148 |
| COC(=O)c1cnc(S)n1C | 207 |
| Nc1ccc(N)c(N)c1 | 97.3 |
| CC(c1ccccc1)N1CC(C(=O)O)CC1=O (stereo not given) | 210 to 213 |
| CCn1c2ccc(Br)cc2c2cc(Br)ccc21 | 139 |
| N#CC1=C(C#N)C(=O)C(NCCCc2ccccc2)=C(Cl)C1=O | 179 |
| CCOc1c(NN(C)C)c(=O)c1=O | 130 to 132 |
| CC(=O)c1cc(Br)ccc1O | 58 to 61 |
| CC1(C)C(=O)Nc2ccccc21 | 154 |
| CC(C)(C)OC(=O)N1CCC(OCC(=O)NC2CC2)CC1 | 86 |
| O=[N+]([O-])c1ccc(N=Nc2ccc(Nc3ccccc3)cc2)cc1 | 160 |
| CC(C)(C)C(O)C(Cc1ccc(Cl)cc1Cl)n1cncn1 (stereo not given) | 148 |
| CC/C(CCCc1ccccc1)=N\NC(N)=O | 149 |
| CCC(C(=O)O)C1(O)CCCCC1 (stereo not given) | 81.5 |
| COc1cc(C(=O)O)cc(OC(C)=O)c1OC | 151 |
| O=C1CCCCCC1c1ccccc1 (stereo not given) | 21 to 23 |
| CCOC(=O)CCCCCC(=O)OCC | -24 |
| O=[N+]([O-])c1ccc(-c2nnc3n2CN(c2ccccn2)CS3)cc1 | > 300 |

| Structure (SMILES) | melting point [°C] |
| --- | --- |
| O=Cc1ccc(-c2ccncc2)cc1 | 101 to 104 |
| O=Cc1ccc(O)c(Br)c1 | 127 |
| Brc1cccc(COc2ccccc2)c1 | 38 to 39 |
| Cc1cc(C#N)ccc1N | 94 |
| O=[N+]([O-])c1ccc(NN=Cc2cccc3c(Br)cccc23)cc1 | 267 to 268 |
| C=CCNC(=S)Nc1sc2c(c1C(=O)OCC)CCCC2 | 151 to 152 |
| C[Si]1(C)O[Si](C)(C)O[Si](C)(C)O[Si](C)(C)O[Si](C)(C)O[Si](C)(C)O1 | -3 |
| CCCCCCCc1ccc(C(=O)O)cc1 | 102 |
| S=C(c1ccc2c(c1)OCO2)N1CCOCC1 | 154 |
| Clc1ccc(Cc2ccc(Cl)cc2)cc1 | 55.5 |
| COC(=O)C1Cc2c([nH]c3ccccc23)C(C)(C)N1 (stereo not given) | 202 to 204 |
| CC(C)(N)C(=O)O | 335 |
| C=CC=CC#N | -60 |
| Clc1c(Cl)c(Cl)c2c(Cl)c(Cl)c(Cl)c(Cl)c2c1Cl | 198 |
| COc1cccc(C(=O)CBr)c1 | 62 |
| CC(C)NC(=S)NN | 96 to 97 |
| CC(=O)Cc1ccco1 | 29 |
| O=C(Oc1ccc2ccccc2c1)c1cccc(S(=O)(=O)Oc2ccc3ccccc3c2)c1 | 172 |
| CCOC(=O)c1cc(=O)c2cc(I)ccc2o1 | 148 to 150 |
| NC1=NCC(c2ccccc2)O1 (stereo not given) | 136 |
| O=[N+]([O-])c1ccccc1C(Cl)C(Cl)c1ccccn1 (stereo not given) | 144 |
| CCCCC1=NC2(CCCC2)C(=O)N1Cc1ccc(-c2ccccc2-c2nnn[nH]2)cc1 | 180 |
| NC(=O)N=NC(N)=O | 195 to 202 |

| Structure (SMILES) | melting point [°C] |
| --- | --- |
| Cc1ccc(C2(O)CCN(CCCC(=O)c3ccc(F)cc3)CC2)cc1 | 118 |
| Cc1cc(N=Nc2ccc(N=Nc3ccccc3)cc2)c(C(C)C)cc1N=Nc1ccc(N=Nc2ccccc2)cc1 | 226 |
| O=C(OC(=O)C(c1ccccc1)c1ccccc1)C(c1ccccc1)c1ccccc1 | 98 |
| CC(=O)Oc1c(-c2ccccc2)[nH]c2cc([N+](=O)[O-])ccc12 | 191 |
| CCOC(=O)c1sc(N)c(C(=O)OCC)c1C | 115 |
| c1ccc2c(c1)OCCOCCOCCOCCOCCO2 | 40 to 45 |
| Cc1cc(-c2ccccc2)n[nH]1 | 127 to 128 |
| N#CSCC(=O)c1ccc(Cl)cc1 | 135 to 136 |
| CS(=O)(=O)OCCC(=O)N1CCN(C(=O)CCOS(C)(=O)=O)CC1 | 175 |
| O=C(O)C(Cl)Cl | 13.5 |
| Nc1c(C=O)cnn1-c1ccc(Cl)cc1 | 80 |
| Cc1c(-c2ccccc2)c2ccccc2n1C | 111 |
| CC1(C)CC2(CC(C)(C)c3cc(O)c(O)cc32)c2cc(O)c(O)cc21 | 300 |
| CC(=O)c1ccc([N+](=O)[O-])s1 | 106 |
| O=C(c1ccco1)c1noc(-c2ccc(Br)cc2)c1S(=O)(=O)c1ccccc1 | 133 |
| O=S(=O)(CCCl)c1ccc(F)cc1 | 69 |
| CN(C)c1ccc(/C=C(/C#N)C(N)=S)cc1 | 189 |
| CC1=C(C)C(=O)C(C)=C(C)C1=O | 112 |
| Cc1ccc(F)c([N+](=O)[O-])c1 | 28 to 30 |
| CC(C)(C)C(O)C(=Cc1ccc(Cl)cc1)n1cncn1 (stereo not given) | 153 |
| O=C(C=Cc1ccc(Br)cc1)c1ccc(Cl)cc1 | 167 to 168 |
